Values of other authors, collected in patent US11589578B2, “Painting with biocides composition and/or prolonged release pesticides” (priority 2018, dated 2023).
Where two headings read alike, the source gives them in different places.

Conditions: for Stability in aqueous media, in words: pH as stated in the value

## CCOP(=S)(OCC)Oc1nc(Cl)c(Cl)cc1Cl [Chlorpyrifos]
Aqueous media, pH 10
  Decomposition time (Average life): 7 days

## C=CCC1=C(C)C(OC(=O)C2C(C=C(C)C)C2(C)C)CC1=O [D-allethrin]
Aqueous media, pH 7
  Decomposition time (Average life): 500 days
Aqueous media, pH 9
  Decomposition time (Average life): (4.3 days)
  Stability in aqueous media, in words: Stable at a pH 5 after 31 days

## CCOP(=S)(OCC)Oc1cc(C)nc(C(C)C)n1 [Diazinon]
Aqueous media, pH 5
  Decomposition time (Average life): 31 days
Aqueous media, pH 7.5
  Decomposition time (Average life): 185 days
Aqueous media, pH 9
  Decomposition time (Average life): 136 days

## O=C(NC(=O)c1c(F)cccc1F)Nc1ccc(Cl)cc1 [Diflubenzuron]
Aqueous media, pH 9
  Behaviour at pH 9, in words: Hydrolyzes

## CCN(CC)c1nc(C)cc(OP(=S)(OC)OC)n1 [Methylperimiphos]
Aqueous media, pH 5
  Decomposition time (Average life): 7 days
Aqueous media, pH 8
  Decomposition time (Average life): 5 days

## CC1(C)C(C=C(Cl)Cl)C1C(=O)OC(C#N)c1cccc(Oc2ccccc2)c1 (stereo not shown) [cypermethrin]
Aqueous media, pH 9
  Decomposition time (Average life): 7 days

## CC1(C)[C@H](C(=O)O[C@H](C#N)c2cccc(Oc3ccccc3)c2)[C@@H]1C=C(Br)Br [deltamethrin]
Aqueous media, pH 7
  Decomposition time (Average life): 0.33 days
  Stability in aqueous media, in words: more stable in medium acid solutions
